Data on 19 compounds can be found in patent publication US20140011799A1 (Bristol-Myers Squibb Company, priority 2012, published 2014).

The target in one experiment is T1, Endothelial lipase (EL) (Homo sapiens, UniProt Q9Y5X9).
T1 construct: HT-1080 cells that were transformed using RAGE technology (Athersys) to overexpress endogenous EL; endogenous in cells; conditioned medium used
T1 sequence (Q9Y5X9 21-500): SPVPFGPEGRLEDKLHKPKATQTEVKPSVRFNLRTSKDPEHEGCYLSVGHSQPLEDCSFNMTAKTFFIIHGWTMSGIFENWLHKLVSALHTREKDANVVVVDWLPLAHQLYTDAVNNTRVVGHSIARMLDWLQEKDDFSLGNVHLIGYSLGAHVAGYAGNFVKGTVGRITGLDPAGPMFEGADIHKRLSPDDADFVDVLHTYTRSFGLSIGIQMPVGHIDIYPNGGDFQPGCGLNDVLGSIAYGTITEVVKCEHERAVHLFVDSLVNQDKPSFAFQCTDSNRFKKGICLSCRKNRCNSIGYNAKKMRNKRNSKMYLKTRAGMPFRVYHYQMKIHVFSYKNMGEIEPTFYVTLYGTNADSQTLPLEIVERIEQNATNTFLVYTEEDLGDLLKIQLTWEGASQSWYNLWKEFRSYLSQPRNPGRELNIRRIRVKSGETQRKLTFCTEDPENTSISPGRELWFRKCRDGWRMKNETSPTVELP
In words: Endothelial lipase (EL) enzymatic assay, fluorescent substrate A10070 in DMPG vesicles. The settings on record: EL from conditioned media of HT-1080 cells; compound preincubated 30 min at 37° C; read-out: EL IC50. The class given is biochemical. The method, boiled down: (§1)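 EL from conditioned medium of HT-1080 cells engineered to overexpress endogenous EL; HL partially purified from conditioned medium of HL-overexpressing COS cells. Enzyme preincubated with compound 30 min at 37° C in 50 mM HEPES pH 8.0, 50 mM NaCl, 1 mM CaCl2; DMPG vesicles carrying FRET substrate (0.11 mole fraction) then added.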

The target in another experiment is T2, hepatic lipase (HL) (Homo sapiens, UniProt P11150).
T2 construct: made in house; host or cells: COS cells (conditioned medium, partially purified)
T2 sequence (P11150 23-499): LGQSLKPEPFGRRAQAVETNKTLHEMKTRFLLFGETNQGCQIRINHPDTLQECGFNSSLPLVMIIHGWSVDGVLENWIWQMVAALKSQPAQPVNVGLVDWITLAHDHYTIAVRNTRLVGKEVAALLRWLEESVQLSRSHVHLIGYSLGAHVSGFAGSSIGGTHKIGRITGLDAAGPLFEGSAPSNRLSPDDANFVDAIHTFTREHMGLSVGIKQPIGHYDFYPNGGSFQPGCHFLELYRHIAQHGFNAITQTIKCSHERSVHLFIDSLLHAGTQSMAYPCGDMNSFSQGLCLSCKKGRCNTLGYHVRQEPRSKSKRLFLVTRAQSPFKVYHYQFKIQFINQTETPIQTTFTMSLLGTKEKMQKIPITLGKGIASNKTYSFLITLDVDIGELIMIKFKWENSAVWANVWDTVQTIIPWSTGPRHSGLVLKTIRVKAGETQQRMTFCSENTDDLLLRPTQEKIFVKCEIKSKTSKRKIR
In words: Hepatic lipase (HL) enzymatic assay, fluorescent substrate A10070 in DMPG vesicles. The class given is biochemical. The conditions noted are these: HL partially purified from conditioned media of COS cells; compound preincubated 30 min at 37° C; read-out: HL IC50. In a few lines: as §1

Take `CS(=O)(=O)C(c1nnc(C[C@@H]2NS(=O)(=O)NC2=O)o1)c1nc2ccc(-c3ccc(C(=O)N4CCOCC4)cc3)cc2s1` (stereo partly drawn) [Example 111, (4S)-4-((5-((methylsulfonyl) (6-(4-(4-morpholinylcarbonyl)phenyl)-1,3-benzothiazol-2-yl)methyl)-1,3,4-oxadiazol-2-yl)methyl)-1,2,5-thiadiazolidin-3-one 1,1-dioxide]: the IC50 (commonly the concentration that inhibits the measured activity by half) is less than 10 nM on Endothelial lipase (EL) and 629 nM at hepatic lipase (HL).

For the compound `NS(=O)(=O)NCc1nnc(C(c2nc3ccc(-c4cccc(C(=O)O)c4)cc3s2)S(=O)(=O)CCC(F)(F)F)o1` (centres unmarked) [Example 191, 3-(2-((5-((Sulfamoylamino)methyl)-1,3,4-oxadiazol-2-yl)((3,3,3-trifluoropropyl)sulfonyl)methyl)-1,3-benzothiazol-6-yl)benzoic acid], the results for the IC50 on Endothelial lipase (EL) and at hepatic lipase (HL) were 15 nM and 2670 nM, respectively.

For `COCc1ccc(-c2ccc3nc(C(c4nnc(CNS(N)(=O)=O)o4)S(=O)(=O)Cc4ccc(C(F)(F)F)cc4)sc3c2)cc1` (centres unmarked) [Example 236, N-{[5-({6-[4-(methoxymethyl)phenyl]-1,3-benzothiazol-2-yl}[4-(trifluoromethyl)phenyl]meth-anesulfonylmethyl)-1,3,4-oxadiazol-2-yl]methyl} aminosulfonamide], the IC50 at Endothelial lipase (EL) and on hepatic lipase (HL) was 1 nM each time.

With `COCc1ccc(-c2ccc3nc(C(c4nnc(CNS(N)(=O)=O)o4)S(=O)(=O)Cc4cccc(F)c4)sc3c2)cc1` (centres unmarked) [Example 241, N-({5-[(3-fluorophenyl)methanesulfonyl({6-[4-(methoxymethyl)phenyl]-1,3-benzothiazol-2-yl})methyl]-1,3,4-oxadiazol-2-yl}methyl)aminosulfonamide], the IC50 on Endothelial lipase (EL) and at hepatic lipase (HL) was 1 nM in each case.

For `CC1(Cc2nnc(C(c3nc4ccc(-c5cccc(C(=O)N6CCOCC6)c5)cc4s3)S(C)(=O)=O)o2)NC(=O)NC1=O` (centres unmarked) [Example 210, 5-({5-[methanesulfonyl({6-[3-(morpholine-4-carbonyl)phenyl]-1,3-benzothiazol-2-yl})methyl]-1,3,4-oxadiazol-2-yl}methyl)-5-methyl-imidazolidine-2,4-dione], the results for the IC50 on Endothelial lipase (EL) and at hepatic lipase (HL) were 9 nM and 365 nM, respectively.

Turning to `CC(C)(C)OC(=O)Cc1nnc(C(c2nc3ccc(-c4ccc(C(=O)N5CCOCC5)cc4)cc3s2)S(=O)(=O)Cc2ccccc2)o1` (centres unmarked) [Example 108, tert-butyl (5-((benzylsulfonyl)(6-(4-(4-morpholinylcarbonyl)phenyl)-1,3-benzothiazol-2-yl)methyl)-1,3,4-oxadiazol-2-yl)acetate], the IC50 turned out to be 24 nM at Endothelial lipase (EL) and 14 nM on hepatic lipase (HL).

As for `NS(=O)(=O)NCc1nnc(C(c2nc3ccc(-c4cc(F)cc(Cl)c4)cc3s2)S(=O)(=O)Cc2ccccc2)o1` (centres unmarked) [Example 144, N-((5-((benzylsulfonyl)(6-(3-chloro-5-fluorophenyl)-1,3-benzothiazol-2-yl)methyl)-1,3,4-oxadiazol-2-yl)methyl) sulfamide], the IC50 at Endothelial lipase (EL) and at hepatic lipase (HL) was less than 10 nM each time.

Turning to `COCc1ccc(-c2ccc3nc(C(c4nnc(CNS(N)(=O)=O)o4)S(=O)(=O)Cc4cc(C(F)(F)F)cc(C(F)(F)F)c4)sc3c2)cc1` (centres unmarked) [Example 234, N-[(5-{[3,5-bis(trifluoromethyl)phenyl]methanesulfonyl({6-[4-(methoxymethyl)phenyl]-1,3-benzothiazol-2-yl})methyl}-1,3,4-oxadiazol-2-yl)methyl]aminosulfonamide], the IC50 at Endothelial lipase (EL) came out at 4 nM; at hepatic lipase (HL) it was 17 nM.

Turning to `COC(=O)CCS(=O)(=O)C(c1nnc(CC2SC(=O)NC2=O)o1)c1nc2cc(F)c(-c3ccccc3)cc2s1` (centres unmarked) [Example 161, methyl 3-(((5-((2,4-dioxo-1,3-thiazolidin-5-yl)methyl)-1,3,4-oxadiazol-2-yl)(5-fluoro-6-phenyl-1,3-benzothiazol-2-yl)methyl)sulfonyl)propanoate], the IC50 on Endothelial lipase (EL) and on hepatic lipase (HL) was less than 10 nM throughout.

Turning to `COCCS(=O)(=O)C(c1nnc(CNS(N)(=O)=O)o1)c1nc2ccc(-c3cccc(C(=O)N4CCN(C)CC4)c3)cc2s1` (centres unmarked) [Example 200, N-((5-(((2-methoxyethyl)sulfonyl)(6-(3-((4-methyl-1-piperazinyl)carbonyl)phenyl)-1,3-benzothiazol-2-yl)methyl)-1,3,4-oxadiazol-2-yl)methyl)sulfamide], the IC50 at Endothelial lipase (EL) is less than 10 nM; on hepatic lipase (HL), 201 nM.

As for `CC(C)(C)OC(=O)NS(=O)(=O)NCc1nnc(C(c2nc3ccc(-c4ccc(C(=O)N5CCOCC5)c(Cl)c4)cc3s2)S(=O)(=O)Cc2ccccc2)o1` (centres unmarked) [Example 147, 2-methyl-2-propanyl [({5-[(benzylsulfonyl){6-[3-chloro-4-(4-morpholinylcarbonyl)phenyl]-1,3-benzothiazol-2-yl}methyl]-1,3,4-oxadiazol-2-yl}methyl)sulfamoyl] carbamate], the IC50 came out at 17 nM at Endothelial lipase (EL) and 626 nM on hepatic lipase (HL).

Consider `CS(=O)(=O)C(c1nnc(CS(N)(=O)=O)o1)c1nc2c(F)cc(-c3ccccc3)cc2s1` (centres unmarked) [Example 163, 1-(5-((4-fluoro-6-phenyl-1,3-benzothiazol-2-yl)(methylsulfonyl)methyl)-1,3,4-oxadiazol-2-yl)methanesulfonamide], for which the IC50 at Endothelial lipase (EL) and at hepatic lipase (HL) was less than 10 nM in each case.

On to `CC1(Cc2nnc(C(c3nc4ccc(-c5cccc(C(=O)N6CC[C@H](F)C6)c5)cc4s3)S(C)(=O)=O)o2)NC(=O)NC1=O` (stereo partly drawn) [Example 228, 5-({5-[(6-{3-[(3S)-3-fluoropyrrolidine-1-carbonyl]phenyl}-1,3-benzothiazol-2-yl) (methanesulfonyl)methyl]-1,3,4-oxadiazol-2-yl}methyl)-5-methyl-imidazolidine-2,4-dione], for which the values for the IC50 at Endothelial lipase (EL) and on hepatic lipase (HL) were 114 nM and 170 nM, respectively.

Consider `CC1(Cc2nnc(C(c3nc4ccc(-c5cccc(C(=O)N6CCC(O)CC6)c5)cc4s3)S(C)(=O)=O)o2)NC(=O)NC1=O` (centres unmarked) [Example 212, 5-{[5-({6-[3-(4-hydroxypiperidine-1-carbonyl)phenyl]-1,3-benzothiazol-2-yl} (methanesulfonyl)methyl)-1,3,4-oxadiazol-2-yl]methyl}-5-methyl-imidazolidine-2,4-dione], for which the IC50 on Endothelial lipase (EL) was found to be 2 nM; at hepatic lipase (HL), 1100 nM.

`CC(C)NC(=O)c1cccc(-c2ccc3nc(C(c4nnc(CNS(N)(=O)=O)o4)S(C)(=O)=O)sc3c2)c1` (centres unmarked) [Example 259, 3-{2-[methanesulfonyl({5-[(sulfamoylamino)methyl]-1,3,4-oxadiazol-2-yl})methyl]-1,3-benzothiazol-6-yl}-N-(propan-2-yl) benzamide]: the IC50 came out at 8 nM at Endothelial lipase (EL) and 37 nM on hepatic lipase (HL).

On to `Cn1cc(-c2ccc3nc(C(c4nnc(CNC(=O)OC(C)(C)C)o4)S(C)(=O)=O)sc3c2)cn1` (centres unmarked) [Example 98, tert-butyl ((5-((6-(1-methyl-1H-pyrazol-4-yl)-1,3-benzothiazol-2-yl)(methylsulfonyl)methyl)-1,3,4-oxadiazol-2-yl)methyl) carbamate], for which the IC50 at Endothelial lipase (EL) was 168 nM; on hepatic lipase (HL) it was greater than 25000 nM.

Take `CS(=O)(=O)C(c1nnc(CC2SC(=O)NC2=O)o1)c1nc2ccc(Br)cc2s1` (centres unmarked) [Example 100, 5-((5-((6-bromo-1,3-benzothiazol-2-yl)(methylsulfonyl)methyl)-1,3,4-oxadiazol-2-yl)methyl)-1,3-thiazolidine-2,4-dione]: the IC50 on Endothelial lipase (EL) was 77 nM; on hepatic lipase (HL), 291 nM.

`COCCS(=O)(=O)C(c1nnc(CNS(N)(=O)=O)o1)c1nc2ccc(-c3cc(F)cc(Cl)c3)cc2s1` (centres unmarked) [Example 151, N-((5-((6-(3-chloro-5-fluorophenyl)-1,3-benzothiazol-2-yl)((2-methoxyethyl)sulfonyl)methyl)-1,3,4-oxadiazol-2-yl)methyl)sulfamide]: the IC50 on Endothelial lipase (EL) and on hepatic lipase (HL) was less than 10 nM throughout.

`Cc1nc(C)c(-c2ccc3nc(C(c4nnc(CC5SC(=O)NC5=O)o4)S(C)(=O)=O)sc3c2)s1` (centres unmarked) [Example 102, 5-((5-((6-(2,4-dimethyl-1,3-thiazol-5-yl)-1,3-benzothiazol-2-yl)(methylsulfonyl)methyl)-1,3,4-oxadiazol-2-yl)methyl)-1,3-thiazolidine-2,4-dione]: the IC50 at Endothelial lipase (EL) and at hepatic lipase (HL) was less than 10 nM in each case.
